Source: US20070105908A1, “Thiazolimine compound and oxazolimine compound” (DAINIPPON SUMITOMO PHARMA CO., LTD., priority 2003, published 2007)

Target: T1, chymase derived from human skin (Homo sapiens, UniProt P23946)
T1 construct: chymase derived from human skin (Elastin Products Co.); purchased Elastin Products Co; host or cells: human skin (tissue-derived)
T1 sequence (P23946 22-247): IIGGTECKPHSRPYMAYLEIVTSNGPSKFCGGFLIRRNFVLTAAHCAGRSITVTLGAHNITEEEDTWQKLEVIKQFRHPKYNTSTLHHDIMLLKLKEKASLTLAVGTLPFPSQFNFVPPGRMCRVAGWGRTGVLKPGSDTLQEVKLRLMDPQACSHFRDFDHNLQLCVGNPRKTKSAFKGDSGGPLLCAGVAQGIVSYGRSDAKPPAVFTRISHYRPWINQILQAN
Test: Inhibitory effect on chymase (in vitro test)
Format: biochemical
Settings: 50 ng chymase, fluorescent synthetic substrate 0.1 mM, pH 8.0, 37° C. for 2 hours
Protocol: Inhibitory Effect on Chymase (In Vitro Test)
To 100 μl of a buffer solution A (50 mM Tris-hydrochloric acid (pH=8.0), 2M NaCl) were added 50 ng of chymase derived from human skin (Elastin Products Co.), a fluorescent synthetic substrate 0.1 mM succinyl-alanylprolyl-phenylalanine-methylcoumalylamide (Peptide Laboratories Co., Ltd.) and a test substance dissolved in dimethyl sulfoxide (DMSO), and the resulting mixture was incubated at 37° C. for 2 hours. Then, the intensity of fluorescence was measured at an excitation wavelength of 355 nm and a measuring wavelength of 460 nm by the use of a fluorescence plate reader (Fluoroscan (Dainippon Pharmaceutical Co., Ltd.)). A fluorescence intensity value obtained without adding the test substance was taken as 100% and a concentration at which a fluorescence intensity value calculated from a regression line became 50% was taken as IC50.

Cc1cn(Cc2cccc3ccccc23)/c(=N/S(=O)(=O)c2ccccc2C(=O)O)s1 [Example 1, 2-({[(2Z)-5-methyl-3-(1-naphthylmethyl)-1,3-thiazol-2(3H)-ylidene]amino}sulfonyl)benzoic acid]
IC50: 2.1 nM
